The source of these data is patent US20250011288A1 (BRISTOL-MYERS SQUIBB COMPANY, priority 2021, published 2025).

For the test, the target named is T1, human RXFP1 (Homo sapiens, UniProt Q9HBX9).
T1 construct: expressed in transfected cells
T1 sequence (Q9HBX9 1-757): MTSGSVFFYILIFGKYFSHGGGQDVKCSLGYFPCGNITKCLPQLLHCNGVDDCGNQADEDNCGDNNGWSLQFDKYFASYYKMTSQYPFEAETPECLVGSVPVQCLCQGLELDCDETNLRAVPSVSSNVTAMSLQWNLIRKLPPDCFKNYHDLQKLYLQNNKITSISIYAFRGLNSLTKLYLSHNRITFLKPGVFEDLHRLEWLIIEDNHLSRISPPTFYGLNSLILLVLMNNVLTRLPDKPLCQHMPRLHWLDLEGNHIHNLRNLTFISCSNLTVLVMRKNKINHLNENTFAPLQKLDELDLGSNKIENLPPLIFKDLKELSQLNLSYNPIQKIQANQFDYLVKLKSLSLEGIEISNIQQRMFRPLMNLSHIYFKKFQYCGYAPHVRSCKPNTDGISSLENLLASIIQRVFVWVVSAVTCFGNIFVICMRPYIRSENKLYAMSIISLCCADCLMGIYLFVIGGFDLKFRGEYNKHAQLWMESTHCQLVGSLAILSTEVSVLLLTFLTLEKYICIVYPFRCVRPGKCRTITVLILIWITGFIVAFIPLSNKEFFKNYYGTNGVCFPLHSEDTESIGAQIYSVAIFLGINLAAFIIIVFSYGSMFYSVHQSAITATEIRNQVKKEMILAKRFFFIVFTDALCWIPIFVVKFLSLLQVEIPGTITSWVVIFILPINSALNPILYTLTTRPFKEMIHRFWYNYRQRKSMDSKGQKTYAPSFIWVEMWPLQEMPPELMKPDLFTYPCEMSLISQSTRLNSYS
Put plainly: human RXFP1 (hRXFP1) HEK293 cAMP assay (HTRF). The test is classed as cell-based. As to conditions: HEK293 cells stably expressing human RXFP1, 30 min at room temperature. A digest of the protocol: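 Intracellular cAMP was quantified by HTRF after a 30 min room-temperature exposure of hRXFP1-HEK293 cells (1500/well) to compound at 0.010 nM–50 µM final, 2% DMSO. Buffer was HBSS with 20 mM HEPES, 0.05% BSA and 0.5 mM IBMX; values came from a 4-parameter logistic fit.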
For orientation: Cyclic AMP is a second messenger, typically raised through Gs and lowered through Gi signalling.
A word on the EC50: it is the concentration at which the effect is half-maximal. The compound `COc1ncc(C2=NOC3COCC23)cc1C(=O)N[C@H]1[C@@H](C(=O)N[C@H](C)C2(C)CC2)[C@H]2CC[C@@H]1/C2=C\c1csc(C(F)(F)F)n1` (stereo partly drawn) [Example 119, 2-methoxy-N-((1R,2R,3S,4R,Z)-3-(((R)-1-(1-methylcyclopropyl)ethyl)carbamoyl)-7-((2-(trifluoromethyl)thiazol-4-yl)methylene)bicyclo[2.2.1]heptan-2-yl)-5-(3a,4,6,6a-tetrahydrofuro[3,4-d]isoxazol-3-yl)nicotinamide] came in with an EC50 of 3.9 nM.

The compound `COc1ncc(C2=NOC3CC(CO)CC23)cc1C(=O)N[C@@H]1C2CCC(/C2=C/C2CC2)[C@@H]1C(=O)Nc1ccc(F)c(C(F)(F)F)c1` (single isomer, unassigned) [Example 67] displayed an EC50 of 300 nM. To `COc1ncc(C2=NOC3CC(CO)CC23)cc1C(=O)N[C@H]1[C@@H](C(=O)Nc2ccc(F)c(C(F)(F)F)c2)[C@H]2CC[C@@H]1/C2=C\C1CCCC1` (stereo partly drawn) [Example 123, N-((1R,2R,3S,4R,Z)-7-(cyclopentyl-methylene)-3-((4-fluoro-3-(trifluoromethyl)phenyl)carbamoyl)bicyclo[2.2.1]heptan-2-yl)-5-(5-(hydroxymethyl)-3a,5,6,6a-tetrahydro-4H-cyclopenta[d]isoxazol-3-yl)-2-methoxynicotinamide] belongs 3.1 nM. Compound `COc1ncc(C2=NOC3CC(C(N)=O)CC23)cc1C(=O)N[C@H]1[C@@H](C(=O)Nc2ccc(F)c(C(F)(F)F)c2)[C@H]2CC[C@@H]1/C2=C\C1CC1` (stereo partly drawn) [Example 66, 5-{5-carbamoyl-3aH,4H,5H,6H, 6aH-cyclopenta[d][1, 2]oxazol-3-yl}-N-[(1R,2R,3S, 4R,7Z)-7-(cyclopropylmethylidene)-3-{[4-fluoro-3-(trifluoromethyl)phenyl]carbamoyl}bicyclo[2.2.1]heptan-2-yl]-2-methoxypyridine-3-carboxamide] registered an EC50 of 1.3 nM. To `Cc1nc(O)c(C(=O)N[C@H]2[C@@H](C(=O)Nc3ccc(F)c(C(F)(F)F)c3)[C@H]3CC[C@@H]2/C3=C\C(F)(F)F)cc1-c1cccc(C(=O)O)c1` [Example 56, 3-(5-(((1R,2R,3S,4R,Z)-3-((4-fluoro-3-(trifluoromethyl)phenyl)carbamoyl)-7-(2,2,2-trifluoroethylidene)bicyclo[2.2.1]heptan-2-yl)carbamoyl)-6-hydroxy-2-methylpyridin-3-yl)benzoic acid] belongs 2800 nM; to `COc1ncc(C2=NOC3COCC23)cc1C(=O)N[C@H]1[C@@H](C(=O)Nc2ccc(F)c(C(F)(F)F)c2)[C@H]2CC[C@@H]1/C2=C\C1CC1` (single isomer, unassigned) [Example 60], 210 nM; to `COc1ncc(-c2cc(C(=O)O)ccc2F)cc1C(=O)N[C@@H]1C2CCC(C2=C(C)C)[C@@H]1C(=O)Nc1ccc(F)c(C(F)(F)F)c1` (stereo partly drawn) [Example 21, 4-fluoro-3-(5-{[(2R,3S)-3-{[4-fluoro-3-(trifluoromethyl)phenyl]carbamoyl}-7-(propan-2-ylidene)bicyclo[2.2.1]heptan-2-yl]carbamoyl}-6-methoxypyridin-3-yl)benzoic acid], 80 nM.

As for `COc1ncc(C2=NOC3CC(C(O)C(F)(F)F)CC23)cc1C(=O)N[C@H]1[C@@H](C(=O)Nc2ccc(F)c(C(F)(F)F)c2)[C@H]2CC[C@@H]1/C2=C\C1CC1` (stereo partly drawn) [Example 135, N-((1R,2R,3S,4R,Z)-7-(cyclopropyl-methylene)-3-((4-fluoro-3-(trifluoromethyl)phenyl)carbamoyl)bicyclo[2.2.1]heptan-2-yl)-2-methoxy-5-(5-(2,2,2-trifluoro-1-hydroxyethyl)-3a,5,6,6a-tetrahydro-4H-cyclopenta[d]isoxazol-3-yl)nicotinamide], the EC50 is 4 nM.

Regarding `O=C(NC1CCC1)O[C@@H](c1ccc(F)c(-c2cnc(OCCO)c(C(=O)N[C@@H]3C4CCC(/C4=C/C(F)(F)F)[C@@H]3C(=O)Nc3ccc(F)c(C(F)(F)F)c3)c2)c1)C(F)(F)F` (stereo partly drawn) [Example 43, (IS)-2,2,2-trifluoro-1-14-fluoro-3-(5-{[(2R,3S,7Z)-3-{[4-fluoro-3-(trifluoromethyl)phenyl]carbamoyl}-7-(2,2,2-trifluoroethylidene)bicyclo[2. 2.1]heptan-2-yl]carbamoyl}-6-(2-hydroxyethoxy)pyridin-3-yl)phenyl]ethyl N-cyclobutylcarbamate], a half-maximal effect (EC50) was put at 9.4 nM. With `COc1ncc(C2=NO[C@@H]3C[C@H](CO)CN23)cc1C(=O)N[C@@H]1C2CCC(/C2=C/C2CC2)[C@@H]1C(=O)N[C@H](C)C1(C)CC1` (stereo partly drawn) [Example 106, N-((1R,2R,3S,4R,Z)-7-(cyclopropyl-methylene)-3-(((R)-1-(1-methylcyclopropyl)ethyl)carbamoyl)bicyclo[2.2.1]heptan-2-yl)-5-((6S,7aR)-6-(hydroxymethyl)-5,6,7,7a-tetrahydropyrrolo [1,2-d][1,2,4]oxadiazo 1-3-yl)-2-methoxynicotinamide], the EC50 stood at 1.8 nM. For the compound `COc1ncc(C2=NO[C@@H]3C[C@H](CO)CN23)cc1C(=O)N[C@@H]1C2CCC(/C2=C/C2CCCC2)[C@@H]1C(=O)Nc1ccc(F)c(C(F)(F)F)c1` (stereo partly drawn) [Example 133, N-((1R,2R,3S,4R,Z)-7-(cyclopentyl-methylene)-3-((4-fluoro-3-(trifluoromethyl)phenyl)carbamoyl)bicyclo[2.2.1]heptan-2-yl)-5-((6S,7aR)-6-(hydroxymethyl)-5,6,7,7a-tetrahydropyrrolo [1,2-d][1,2,4]oxadiazo 1-3-yl)-2-methoxynicotinamide], the EC50 worked out at 2.1 nM. `CC1(C)Cc2cc(C3=NOC4CC(O)(C(F)(F)F)CC34)cc(C(=O)N[C@@H]3C4CCC(/C4=C/C4CCCC4)[C@@H]3C(=O)Nc3ccc(F)c(C(F)(F)F)c3)c2O1` (single isomer, unassigned) [Example 142] yielded an EC50 of 2.2 nM. With `O=C(N[C@@H]1C2CCC(/C2=C/C(F)(F)F)[C@@H]1C(=O)Nc1ccc(F)c(C(F)(F)F)c1)c1cc(Br)cnc1OCCO` (stereo partly drawn) [Example 41, 5-bromo-N-[(2R,3S,7Z)-3-{[4-fluoro-3-(trifluoromethyl)phenyl]carbamoyl}-7-(2,2,2-trifluoroethylidene)bicyclo[2.2.1]heptan-2-yl]-2-(2-hydroxyethoxy) pyridine-3-carboxamide], the EC50 was 770 nM. As to `COc1ncc(C(=O)OC(C)(C)C)cc1C(=O)N[C@H]1[C@@H](C(=O)Nc2ccc(F)c(C(F)(F)F)c2)[C@H]2CC[C@@H]1/C2=C\C1CC1` [Example 78, tert-butyl 5-(((1R,2R,3S,4R,Z)-7-(cyclopropylmethylene)-3-((4-fluoro-3-(trifluoromethyl)phenyl)carbamoyl)bicyclo[2.2.1]heptan-2-yl)carbamoyl)-6-methoxynicotinate], the EC50 is 140 nM. As to “N- ((1R,2R,3S,4R,Z)- 3-((4-fluoro-3- (trifluoromethyl) phenyl)carbamoyl)- 7-3- hydroxy- propylidene) bicyclo[2.2.1] heptan-2-yl)-5-(5- (hydroxymethyl)- 3a,5,6,6a- tetrahydro-4H- cyclopenta[d] isoxazol-3-yl)-2- methoxy- nicotinamide [Example 114]”, the EC50 came to 1.2 nM.

The compound `COc1nccnc1C(=O)N[C@@H]1C2CCC(C2=C(C)C)[C@@H]1C(=O)Nc1ccc(F)c(C(F)(F)F)c1` (stereo partly drawn) [Example 7, N-[(2R,3S)-3-{[4-fluoro-3-(trifluoromethyl)phenyl]carbamoyl}-7-(propan-2-ylidene)bicyclo [2.2.1]heptan-2-yl]-3-methoxypyrazine-2-carboxamide] registered an EC50 of 1200 nM.

As for `COc1ncc(C2=NOC3CC(C(C)(C)O)CC23)cc1C(=O)N[C@H]1[C@@H](C(=O)Nc2ccc(F)c(C(F)(F)F)c2)[C@H]2CC[C@@H]1/C2=C\C1CC1` (stereo partly drawn) [Example 109, N-((1R,2R,3S,4R,Z)-7-(cyclopropylmethylene)-3-((4-fluoro-3-(trifluoromethyl)phenyl)carbamoyl)bicyclo[2.2.1]heptan-2-yl)-5-(5-(2-hydroxypropan-2-yl)-3a,5,6,6a-tetrahydro-4H-cyclopenta[d]isoxazol-3-yl)-2-methoxynicotinamide], the EC50 turned out to be 2.7 nM. To `COc1cscc1C(=O)N[C@@H]1C2CCC(C2=C(C)C)[C@@H]1C(=O)Nc1ccc(F)c(C(F)(F)F)c1` (stereo partly drawn) [Example 9, N-[(2R,3S)-3-{[4-fluoro-3-(trifluoromethyl)phenyl]carbamoyl}-7-(propan-2-ylidene)bicyclo [2.2.1]heptan-2-yl]-4-methoxy-thiophene-3-carboxamide] belongs 1400 nM.
